Experimental data: US10308682B2, “Inhibition of tumor growth with aggregates of small molecules” (BRANDEIS UNIVERSITY, priority 2013, dated 2019)

Assays:
HeLa cells [1] = assay: Cell migration assay of HeLa cells; assay type: cell-based; conditions: 18 h
Experimental: (§1) FIG. 3 depicts the response of cancer cells toward molecular aggregates of 1. (a) Intracellular concentration of 1 in HeLa cells treated with 1 for 12 h at different temperatures measure by LC-MS (left bar=37° C.; right bar=4° C.). (b) Confocal images of FITC annexin V and PI stained HeLa cells without incubation with 1 (live cells), HeLa cells treated with 400 μM of 1 for 36 h, and necrotic HeLa cells (induced by DMSO). Scale bar=20 μm. (c) Fluorescence emission of 7-AAD and 1 in cell lysate (15,000 cell/mL) at λex=488 nm. (d) Cell cycle analysis, by flow cytometry, of HeLa cells treated with 0, 300 or 400 μM of 1 for 24 h. Depletion of G2/M phase occurs in cells treated with 400 μM of 1. (e) Cell migration assay of HeLa cells treated with 0, 300, 400 or 500 μM of 1. The gaps were created on the HeLa cells of 100% confluence in 24 well plates, and measured after incubation for 18 h.
Because apoptosis associates with cell cycle, we examined the effect of the aggregates of 1 on the cell cycle. […] The cell-cycle distribution of the HeLa cells incubated with 400 μM of 1 indicates significant decrease of the peaks of S phase and G2/M phase. […] The slight right shift of the whole spectra results from the overlapping of emission of 7-AAD and 1 (FIG. 3c). But such shift barely hampers the distribution of cell-cycle of the spectra. The aggregates of 1 also delay the migration of the HeLa cells.

PC12 cells = assay: Tubulin staining (tubulin tracker), PC12 cells; assay type: cell-based; conditions: 400 μM, 24 h
HeLa tumors = assay: Xenograft mouse model, HeLa tumors, peritumoral injection; assay type: in vivo, Nu/nu mice
Experimental: FIG. 2 depicts the cytotoxicity of 1. Cell viability assay (MTT) of HeLa cells after 24 and 48 h of treatment with (a) as prepared or (b) filtered medium containing different concentrations of 1. Also shown are MTT assays of 1 towards (c) MCF 7, (d) HepG2, (e) T98G and (f) PC12 cell lines. Data are presented as mean±SD of three independent experiments. (g) Tumor progression curves of mice bearing HeLa tumors. 0.1 mL of 1 at 5 mM or 0.5 mM in PBS buffers or just PBS buffer as control (six doses, starting day 1) was subcutaneous peritumorally injected every three days. Data are presented as mean±SD of relative tumor volume (n=4 for treatment groups and n=3 for control group). *p<0.05, by Student's t test. (at day 19, 5 mM=bottom data point; 0.5 mM=middle data point; control=top data point). (h) A representative image to show the mice, started with similar initial tumor volume (V0), from each group on 19th day of treatment. White arrows point at tumor. See also FIG. 9, FIG. 10, and FIG. 11.
Nu/nu mice were injected with HeLa cells (5×10^6) subcutaneously for tumor development. Treatment was started when average tumor size reached 30 mm^3. Mice were divided into three groups. One group (n=3) received 0.1 mL PBS buffer as control, the other two groups (n=4) received 0.1 mL of 1 at 5 mM or 0.5 mM. Six doses were given every three days starting day 1. Progression of tumor was monitored until 19th day of the treatment.
To further assess the inhibitory effect of molecular aggregates of 1 to cancer cells, we inoculated HeLa cells on nude mice and treated the xenograft tumors with molecular aggregates of 1 by peritumoral injection.

MES-SA = assay: Cell viability assay (MTT), MES-SA; assay type: cell-based
Experimental: (§2) Cells in exponential growth phase were seeded in a 96 well plate at a concentration of 50,000 cell/well. The cells were allowed to attach to the wells for 24 h at 37° C., 5% CO2, then the culture medium was removed and 100 μL new culture medium containing 1 at gradient concentrations was placed into each well. After culturing at 37° C., 5% CO2 for desired time, each well was added by 10 μL of 5 mg/mL MTT 43-(4,5-Dimethylthiazol-2-yl)-2,5-diphenyltetrazolium bromide), and the plated cells were incubate at dark for 4 h. 100 μL 10% SDS with 0.01 M HCl was added to each well to stop the reduction reaction and to dissolve the purple. After incubation of the cells at 37° C. for overnight, the viability is measured. Data represent the mean±standard deviation of three independent experiments.
(§3) The estimation of the threshold concentration of aggregation (320-340 μM) for 1 allows us to examine the cytotoxicity of 1 in monomer and molecular aggregate forms. We first tested the cytotoxicity of 1 towards HeLa cells, the most widely studied cancer cell line, below and above the threshold concentration.

HeLa cells [2] = assay: Degradation of 1 in HeLa cells (LC-MS); assay type: in vitro ADME; conditions: 12 h at 37° C.
Experimental: FIG. 17 depicts the degradation of 1 in HeLa cells. HeLa cells were lysed after incubation with 1 at different concentrations for 12 h at 37° C. The fragmental residue of 1 detected and quantified by LC-MS was (S)-2-(2-(naphthalen-2-yl) acetamido)-3-phenylpropanoic acid.

HeLa cells [3] = assay: FITC annexin V / PI staining of HeLa cells; assay type: cell-based; conditions: 400 μM, 36 h
Text: To determine the process of cell death induced by the aggregates of 1, we used FITC conjugated annexin V and propidium iodide (PI) to stain the cells (FIG. 3b). Being membrane impermeable, PI discriminates viable cells from late apoptotic or necrotic cells, and FITC conjugated annexin V binds to plasma membrane of apoptotic and necrotic cells as the former ones have extracellular exposed phosphatidylserine and the latter ones lose membrane integrity.

MCF-7 = assay: Cell viability assay (MTT), MCF-7; assay type: cell-based
Experimental: as §2, §3

HeLa cells [4] = assay: Intracellular concentration of 1 in HeLa cells by LC-MS; assay type: cell-based; conditions: incubated with 300 μM and 400 μM for 24 h
Experimental: as §1, with “(e) Cell migration assay of HeLa cells treated with 0, 300, 400 or 500 μM of 1.” left out
The cytotoxicity of the molecular aggregates of 1 toward the cancer cells in cell assays and on animal model warrants further examination on the mechanism of the cell death. […] We measured the intracellular concentrations of 1 in the lysate of the HeLa cells incubated with 300 μM and 400 μM of 1 for 24 h (FIG. 3a) at 37° C. or 4° C. Based on the amount of 1, measured by liquid chromatography-mass spectroscopy (LC-MS) and the estimated total cell volume, the concentration of 1 inside the cells is about 150% of the concentration of 1 used for the incubation at 37° C. […]

HepG2 = assay: Cell viability assay (MTT), HepG2; assay type: cell-based
Experimental: as §2, §3

## O=C(Cc1ccc2ccccc2c1)N[C@@H](Cc1ccccc1)C(=O)N[C@@H](Cc1ccccc1)C(=O)O [Compound 1]
HeLa cells [1]; 300 μM
  gap coverage by migrating cells: 47 % of the gaps
HeLa cells [1]; 400 or 500 μM
  gap coverage by migrating cells: 27 % of the gaps
PC12 cells
  microtubule morphology: intact microtubule networks
HeLa tumors; 0.5 mM (~1 mg/kg), 0.1 mL peritumoral, every three days
  effect on tumor growth: little effect on tumor growth
HeLa tumors; 5 mM
  surface of the skin covering and around the tumor: intact (with no ulceration or sclerosis)
HeLa tumors; 5 mM (~10 mg/kg), 0.1 mL peritumoral, every three days
  effect on tumor progression: starts to inhibit tumor progression after 10th day of treatment
HeLa tumors; 5 mM, 19th day of treatment
  tumor size versus 0.5 mM group and control group: significantly smaller
HeLa tumors; 0.1 mL of 5 mM or 0.5 mM
  body weight change: no significant weight loss or weight gain
MES-SA
  cytotoxicity towards MES-SA: decreases of cell viabilities only observed at 400 and 500 μM
HeLa cells [2]
  degradation of 1: rather fast
HeLa cells [3]
  process of cell death: induce apoptosis
MCF-7
  cytotoxicity towards MCF-7: decreases of cell viabilities only observed at 400 and 500 μM
HeLa cells [4]; 4° C.
  concentration of 1 inside the cells: about 30 % of the incubating concentration
HeLa cells [4]; 37° C.
  concentration of 1 inside the cells: about 150 % of the concentration of 1 used for the incubation
HepG2
  cytotoxicity towards HepG2: decreases of cell viabilities only observed at 400 and 500 μM
